Legend:
[1] = target: T1, Muscarinic acetylcholine receptor M2 (Homo sapiens, UniProt P08172); experiment: Tested in vitro for the binding affinity against muscarinic receptor subtype 2 (M2)
T1 sequence (P08172 whole entry): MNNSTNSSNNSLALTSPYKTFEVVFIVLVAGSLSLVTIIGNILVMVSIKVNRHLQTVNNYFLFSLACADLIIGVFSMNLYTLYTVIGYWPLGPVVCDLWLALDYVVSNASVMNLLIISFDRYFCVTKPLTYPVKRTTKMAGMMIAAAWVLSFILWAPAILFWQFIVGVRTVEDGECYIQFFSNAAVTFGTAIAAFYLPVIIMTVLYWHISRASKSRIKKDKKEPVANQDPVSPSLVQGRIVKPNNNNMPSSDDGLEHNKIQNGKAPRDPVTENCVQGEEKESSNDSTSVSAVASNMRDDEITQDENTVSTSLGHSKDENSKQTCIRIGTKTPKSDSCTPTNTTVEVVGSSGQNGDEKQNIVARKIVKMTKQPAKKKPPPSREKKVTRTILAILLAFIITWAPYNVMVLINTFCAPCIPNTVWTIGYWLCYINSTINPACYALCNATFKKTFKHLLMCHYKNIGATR

[2] = target: T2, Muscarinic acetylcholine receptor M1 (Homo sapiens, UniProt P11229); experiment: Tested in vitro for the binding affinity against muscarinic receptor subtype 1 (M1)
T2 sequence (P11229 whole entry): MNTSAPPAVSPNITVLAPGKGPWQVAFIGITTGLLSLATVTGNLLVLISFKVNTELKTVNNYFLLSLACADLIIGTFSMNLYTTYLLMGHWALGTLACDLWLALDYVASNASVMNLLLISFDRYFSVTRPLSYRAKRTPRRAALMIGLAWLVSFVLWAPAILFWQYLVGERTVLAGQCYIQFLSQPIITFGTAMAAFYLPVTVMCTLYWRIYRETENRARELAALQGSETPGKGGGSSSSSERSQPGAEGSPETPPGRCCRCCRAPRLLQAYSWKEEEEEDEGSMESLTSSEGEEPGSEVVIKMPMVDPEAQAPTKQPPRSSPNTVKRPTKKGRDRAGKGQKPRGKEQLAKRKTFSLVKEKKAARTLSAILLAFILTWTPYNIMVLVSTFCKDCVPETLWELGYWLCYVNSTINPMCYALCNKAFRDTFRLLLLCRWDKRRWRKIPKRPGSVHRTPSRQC

[3] = target: Muscarinic acetylcholine receptor M3 (Homo sapiens, UniProt P20309); experiment: Tested in vitro for the binding affinity against muscarinic receptor subtype 3 (M3)
Muscarinic acetylcholine receptor M3, sequence (P20309 whole entry): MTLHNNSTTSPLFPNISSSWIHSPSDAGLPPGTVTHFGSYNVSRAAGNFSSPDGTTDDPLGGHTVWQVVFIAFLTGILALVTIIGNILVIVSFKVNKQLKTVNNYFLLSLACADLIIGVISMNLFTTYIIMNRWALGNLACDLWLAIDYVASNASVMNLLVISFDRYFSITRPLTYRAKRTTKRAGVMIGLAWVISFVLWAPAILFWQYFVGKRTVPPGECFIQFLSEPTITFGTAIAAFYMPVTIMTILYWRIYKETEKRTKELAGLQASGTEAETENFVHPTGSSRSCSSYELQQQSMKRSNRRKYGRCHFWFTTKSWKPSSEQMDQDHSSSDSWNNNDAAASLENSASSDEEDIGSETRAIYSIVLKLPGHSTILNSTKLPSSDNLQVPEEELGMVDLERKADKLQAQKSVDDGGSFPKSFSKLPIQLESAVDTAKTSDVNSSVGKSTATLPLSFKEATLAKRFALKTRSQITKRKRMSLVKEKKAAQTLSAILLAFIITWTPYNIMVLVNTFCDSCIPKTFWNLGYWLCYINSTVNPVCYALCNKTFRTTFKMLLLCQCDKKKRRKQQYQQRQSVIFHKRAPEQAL

Row | Compound | Ki [1] [nM] | Ki [2] [nM] | Ki [3] [nM]
1 | CCN(CCCCC1CCN(CC(=O)N2c3ccccc3C(=O)N(C(=O)c3ccc(F)cc3)c3ccccc32)CC1)C(=O)c1ccc(F)cc1 | 46.9 | 129 | 79.1
2 | CCN(CCCCC1CCN(CC(=O)N2c3ccccc3NC(=O)c3ccccc32)CC1)C(=O)c1ccc(F)cc1 | 32 | 59.4 | 46.4

More lines, now with the values ahead:

Row | Ki [1] [nM] | Ki [2] [nM] | Ki [3] [nM] | Compound
3 | 37.1 | 70 | 39.2 | CCOC(=O)N(CC)CCCCC1CCN(CC(=O)N2c3ccccc3NC(=O)c3ccccc32)CC1
4 | 111 | 67.1 | 33.5 | CCN(CCCCC1CCN(CC(=O)N2c3ccccc3NC(=O)c3ccccc32)CC1)C(=O)c1cccc(I)c1
5 | 4.49 | 6.98 |  | CCNCCCCC1CCN(CC(=O)N2c3ccccc3NC(=O)c3ccccc32)CC1
